Experimental data: patent US7358359B2, “Antibacterial agents” (University of Washington, priority 2003, dated 2008)
Values after ≈ are worked out from the molar mass of the structure shown. Where two headings read alike, the source gives them in different places.

Key:
Assay type in all cases: cell-based
Enterobacter cloacae = assay: MIC vs enteric organisms: Enterobacter cloacae; conditions: E. clo., comparator antibacterials
Description: (§1) Bacterial isolates were cultivated from −70° C. frozen stocks by two consecutive overnight passages at 35° C. in ambient air on 5% blood agar (Remel, Lenexa, Kans.). Clinical isolates tested were from a collection composed of isolates collected during clinical trials and recent clinical isolates obtained from various geographically diverse hospitals in the US. Quality control and primary panel strains were from the American Type Culture Collection (ATCC; Rockville, Md.), with the exception of P. aeruginosa PAO200, a strain with a deletion of the mexABoprM genes that was received from Dr. H. Schweizer.
(§2) Minimum Inhibitory Concentrations (MICs) were determined by the broth microdilution method in accordance with the National Committee for Clinical Laboratory Standards (NCCLS) guidelines. In brief, organism suspensions were are adjusted to a 0.5 McFarland standard to yield a final inoculum between 3×10^5 and 7×10^5 colony-forming units (CFU)/mL. Drug dilutions and inocula were made in sterile, cation adjusted Mueller-Hinton Broth (Remel). An inoculum volume of 100 μl was added to wells containing 100 μl of broth with 2-fold serial dilutions of drug. All inoculated microdilution trays were incubated in ambient air at 35° C. for 18-24 hours. Following incubation, the lowest concentration of the drug that prevented visible growth was recorded as the MIC.

[1] = tested on: Pseudomonas aeruginosa cystic fibrosis isolate 3236; assay: MIC vs cystic fibrosis isolate of P. aeruginosa 3236 (sensitive to most antibacterials); conditions: strain 3236, Sensitive, comparator antibacterials
Description: as §1, §2

[2] = tested on: Pseudomonas aeruginosa cystic fibrosis isolate 3206; assay: microbe, parasite or virus in culture; conditions: strain 3206, MDR, comparator antibacterials, read-out: MIC
Description: as §1, §2

[3] = tested on: Pseudomonas aeruginosa cystic fibrosis isolate 1145; assay: microbe, parasite or virus in culture; conditions: strain 1145, MDR, comparator antibacterials, read-out: MIC
Description: as §1, §2

[4] = tested on: non-CF clinical isolates of P. aeruginosa; assay: MIC vs non-CF clinical isolates of P. aeruginosa; conditions: Pseudomonas aeruginosa, comparator antibacterials
Description: as §1, with “Schweizer. […] Strain Z61 (ATCC 35151) is also hypersusceptible to antibacterials. It is thought that the hypersusceptibility of this strain is the result of increased permeability of its outer membrane (Angus B L et al, Antimicrobial Agents and Chemotherapy 1982 21,299-309: Outer membrane permeability in Pseudomonas aeruginosa: Comparison of a wild-type with an antibacterial-supersusceptible mutant).” for “Schweizer.”
as §2, with “MIC. Performance of the assay was monitored by the use of laboratory quality-control strains against tobramycin, that has a defined MIC spectrum, in accordance with NCCLS guidelines.” for “MIC.”

[5] = tested on: Pseudomonas aeruginosa cystic fibrosis isolate 3232; assay: MIC vs cystic fibrosis isolate of P. aeruginosa 3232 (Ceftaz. R); conditions: strain 3232, Ceftaz. R, comparator antibacterials
[6] = tested on: Pseudomonas aeruginosa cystic fibrosis isolate 3198; assay: MIC vs cystic fibrosis isolate of P. aeruginosa 3198 (sensitive to most antibacterials); conditions: strain 3198, Sensitive, comparator antibacterials
Description: as §1, §2

Serratia marcescens = assay: MIC vs enteric organisms: Serratia marcescens; conditions: S. marc., comparator antibacterials
Description: as §1, §2

[7] = tested on: Stenotrophomonas maltophilia; assay: MIC vs non-fermenting organisms: Stenotrophomonas maltophilia; conditions: S. malt., comparator antibacterials
Description: as §1, §2

[8] = tested on: Pseudomonas aeruginosa cystic fibrosis isolate 3317; assay: MIC vs cystic fibrosis isolate of P. aeruginosa 3317 (resistant to aztreonam); conditions: strain 3317, Aztr. R, comparator antibacterials
Description: as §1, §2

Klebsiella pneumoniae = assay: MIC vs enteric organisms: Klebsiella pneumoniae; conditions: K. pneu., comparator antibacterials
Description: as §1, §2

Escherichia coli = assay: MIC vs enteric organisms: Escherichia coli clinical isolates
Description: as §1, §2

[9] = tested on: Acinetobacter calcoaceticus; assay: MIC vs non-fermenting organisms: Acinetobacter calcoaceticus; conditions: Acinet. calc., comparator antibacterials
Description: as §1, §2

Proteus mirabilis = assay: MIC vs enteric organisms: Proteus mirabilis; conditions: P. mir., comparator antibacterials
Description: as §1, §2

[10] = tested on: Pseudomonas aeruginosa cystic fibrosis isolate 2196; assay: MIC vs cystic fibrosis isolate of P. aeruginosa 2196 (resistant to ciprofloxacin); conditions: strain 2196, Cipro R, comparator antibacterials
Description: as §1, §2

[11] = tested on: Pseudomonas aeruginosa cystic fibrosis isolate 3224; assay: MIC vs cystic fibrosis isolate of P. aeruginosa 3224; conditions: strain 3224, Tobra R, comparator antibacterials
Description: as §1, §2

Klebsiella oxytoca = assay: MIC vs enteric organisms: Klebsiella oxytoca; conditions: K. oxy., comparator antibacterials
Description: as §1, §2

Alcaligenes xylosoxidans = assay: MIC vs non-fermenting organisms: Alcaligenes xylosoxidans; conditions: Achromobacter xylosoxidans; Alcal. xyl; comparator antibacterials
Description: as §1, §2

Burkholderia cepacia = assay: MIC vs non-fermenting organisms: Burkholderia cepacia; conditions: B. cepacia, comparator antibacterials
Description: as §1, §2

Enterobacter aerogenes = assay: MIC vs enteric organisms: Enterobacter aerogenes; conditions: Klebsiella aerogenes; E. aer.; comparator antibacterials
Description: as §1, §2

[12] = Escherichia coli, E. coli 2788, comparator antibacterials, read-out: MIC
[13] = Burkholderia cepacia, read-out: MIC

| SMILES | MIC (Enterobacter cloacae) [µg/mL] | MIC [1] [µg/mL] | MIC [2] [µg/mL] | MIC [3] [µg/mL] | MIC ([4]; P. aer 12307) [µg/mL] | MIC ([4]; P. aer psa-6b) [µg/mL] | MIC [5] [µg/mL] | MIC [6] [µg/mL] | MIC (Serratia marcescens) [µg/mL] | MIC [8] [µg/mL] | MIC (Klebsiella pneumoniae) [µg/mL] | MIC (Escherichia coli; [12]) [µg/mL] | MIC [9] [µg/mL] | MIC (Proteus mirabilis) [µg/mL] | MIC [10] [µg/mL] | MIC [11] [µg/mL] | MIC (Klebsiella oxytoca) [µg/mL] | MIC (Alcaligenes xylosoxidans) [µg/mL] | MIC (Burkholderia cepacia; [13]) [µg/mL] | MIC (Burkholderia cepacia) [µg/mL] | other results |
| --- | --- | --- | --- | --- | --- | --- | --- | --- | --- | --- | --- | --- | --- | --- | --- | --- | --- | --- | --- | --- | --- |
| C[C@H]1[C@H](NC(=O)/C(=N\OC(C)(C)C(=O)O)c2csc(N)n2)C(=O)N1S(=O)(=O)O [Aztreonam, aztreonam, reference compound] | ≤ 0.13 | 0.5 (≈ 1.15 µM) | > 128 | > 128 | 16 (≈ 36.7 µM) | 32 (≈ 73.5 µM) | 1 (≈ 2.3 µM) | 1 (≈ 2.3 µM) | ≤ 0.13 | 64 (≈ 147 µM) | 2 (≈ 4.59 µM) | ≤ 0.13 | 32 (≈ 73.5 µM) | ≤ 0.13 | 1 (≈ 2.3 µM) | 1 (≈ 2.3 µM) | 0.5 (≈ 1.15 µM) | 32 (≈ 73.5 µM) | 64 (≈ 147 µM) | – | MIC [7]: 16 µg/mL (≈ 36.7 µM); MIC (Escherichia coli; E. coli 1619, comparator antibacterials): 64 µg/mL (≈ 147 µM); MIC (Escherichia coli; Escherichia coli, E. coli 1619, comparator antibacterials, read-out: MIC): 128 µg/mL (≈ 294 µM) |
| CO/N=C(\C(=O)N[C@@H]1C(=O)N2C(C(=O)[O-])=C(C[N+]3(C)CCCC3)CS[C@H]12)c1csc(N)n1 [Cefepime, cefepime, reference compound] | ≤ 0.13 | 2 (≈ 4.16 µM) | 32 (≈ 66.6 µM) | > 128 | 2 (≈ 4.16 µM) | 8 (≈ 16.6 µM) | 2 (≈ 4.16 µM) | 4 (≈ 8.32 µM) | ≤ 0.13 | 8 (≈ 16.6 µM) | 8 (≈ 16.6 µM) | ≤ 0.13 | 8 (≈ 16.6 µM) | ≤ 0.13 | 2 (≈ 4.16 µM) | 8 (≈ 16.6 µM) | ≤ 0.13 | 8 (≈ 16.6 µM) | 32 (≈ 66.6 µM) | 16 (≈ 33.3 µM) | – |
| CC(C)(O/N=C(\C(=O)N[C@@H]1C(=O)N2C(C(=O)[O-])=C(C[n+]3ccccc3)CS[C@H]12)c1csc(N)n1)C(=O)O [Ceftazidime, ceftazidime, reference compound] | 0.25 (≈ 0.457 µM) | 0.25 (≈ 0.457 µM) | > 128 | > 128 | 4 (≈ 7.32 µM) | 64 (≈ 117 µM) | 64 (≈ 117 µM) | 2 (≈ 3.66 µM) | 0.25 (≈ 0.457 µM) | 4 (≈ 7.32 µM) | 8 (≈ 14.6 µM) | 0.25 (≈ 0.457 µM) | 16 (≈ 29.3 µM) | ≤ 0.13 | 2 (≈ 3.66 µM) | 2 (≈ 3.66 µM) | 0.25 (≈ 0.457 µM) | 1 (≈ 1.83 µM) | 8 (≈ 14.6 µM) | 4 (≈ 7.32 µM) | MIC ([7]; Stenotrophomonas maltophilia, read-out: MIC): 1 µg/mL (≈ 1.83 µM); MIC (Escherichia coli; Escherichia coli): > 128 µg/mL; MIC (Enterobacter aerogenes): 32 µg/mL (≈ 58.5 µM) |
